# Measurements reported in ChEMBL document CHEMBL5244261, “Insights of tankyrases: A novel target for drug discovery” (Eur J Med Chem, 2020).
# Target: T1, Poly [ADP-ribose] polymerase tankyrase-1 (Homo sapiens, UniProt O95271)
# T1 sequence (O95271 whole entry): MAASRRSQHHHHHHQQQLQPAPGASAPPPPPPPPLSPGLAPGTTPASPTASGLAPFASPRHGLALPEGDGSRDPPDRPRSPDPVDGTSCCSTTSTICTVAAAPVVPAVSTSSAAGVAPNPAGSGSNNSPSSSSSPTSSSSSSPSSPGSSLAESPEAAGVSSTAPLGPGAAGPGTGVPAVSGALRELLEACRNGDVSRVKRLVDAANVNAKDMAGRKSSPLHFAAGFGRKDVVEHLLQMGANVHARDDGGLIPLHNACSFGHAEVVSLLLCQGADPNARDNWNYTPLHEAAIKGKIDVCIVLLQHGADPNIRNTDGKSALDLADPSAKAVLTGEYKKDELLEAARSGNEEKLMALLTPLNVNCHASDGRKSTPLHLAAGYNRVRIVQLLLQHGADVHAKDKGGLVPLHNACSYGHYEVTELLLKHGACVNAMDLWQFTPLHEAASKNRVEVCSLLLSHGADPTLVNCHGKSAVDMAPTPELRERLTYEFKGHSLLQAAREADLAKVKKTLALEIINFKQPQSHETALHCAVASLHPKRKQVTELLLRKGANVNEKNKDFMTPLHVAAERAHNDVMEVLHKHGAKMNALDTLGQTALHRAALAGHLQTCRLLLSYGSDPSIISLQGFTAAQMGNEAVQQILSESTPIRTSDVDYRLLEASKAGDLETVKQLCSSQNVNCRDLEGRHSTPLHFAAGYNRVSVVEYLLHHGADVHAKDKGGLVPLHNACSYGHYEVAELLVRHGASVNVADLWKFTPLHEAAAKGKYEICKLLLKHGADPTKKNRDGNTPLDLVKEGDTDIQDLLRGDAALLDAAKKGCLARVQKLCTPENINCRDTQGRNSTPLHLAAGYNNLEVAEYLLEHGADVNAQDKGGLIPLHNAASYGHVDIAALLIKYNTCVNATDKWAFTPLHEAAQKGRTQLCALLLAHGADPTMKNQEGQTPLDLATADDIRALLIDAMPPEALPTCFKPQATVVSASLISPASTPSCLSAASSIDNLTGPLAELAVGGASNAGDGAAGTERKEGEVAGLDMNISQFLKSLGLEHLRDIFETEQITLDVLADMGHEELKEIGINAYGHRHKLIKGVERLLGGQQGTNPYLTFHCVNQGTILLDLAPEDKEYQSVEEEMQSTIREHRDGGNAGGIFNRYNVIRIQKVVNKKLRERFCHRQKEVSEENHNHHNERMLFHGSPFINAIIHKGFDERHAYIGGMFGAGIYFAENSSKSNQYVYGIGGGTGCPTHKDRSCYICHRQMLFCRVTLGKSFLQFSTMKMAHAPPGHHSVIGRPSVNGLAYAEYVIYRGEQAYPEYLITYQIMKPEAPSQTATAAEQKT
# Assay: Inhibition of human recombinant […] TNKS1 (1030 to 1317 residues) expressed in Escherichia coli assessed as inhibition by fluorescence based analysis
row,Compound,IC50 [nM]
1,COC(=O)c1ccc(-c2nc3ccccc3c(=O)[nH]2)cc1,23
2,O=C1OCCN1c1ccc(-c2nc3ccccc3c(=O)[nH]2)cc1,15
3,O=C(Nc1ccc(-c2nc3ccccc3c(=O)[nH]2)cc1)c1cccs1,21

# These reach a lower IC50. Values come first.
row,IC50 [nM],Compound
1,12,NS(=O)(=O)c1ccc(-c2nc3ccccc3c(=O)[nH]2)cc1
2,5,CC1(c2ccc(-c3nc4ccccc4c(=O)[nH]3)cc2)NC(=O)NC1=O (stereo not given)
